# Source: US7026339B2, “Inhibitors of HCV NS5B polymerase” (priority 2003, dated 2006)
# pIC50: −log10 of the molar value.
# Tested on: HuH-7 replicon cells 5–15 and 9–13 (HCV replication)
# Assay: Inhibition of viral replication in HuH-7 replicon cells (HCV RNA / GAPDH RNA by multiplex RT-PCR)
# Type: cell-based
# Details: Hepatitis C virus, 72 h; inhibiting 50% of replication; HuH-7 replicon cells, 3 days; read-out: IC50
# Method in brief: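 HCV and GAPDH RNA were measured by multiplex TaqMan RT-PCR (HCV 5′ untranslated region) after 3-day compound treatment at 37 °C, final 100 μM–1 μM in 1% DMSO. Cells were plated 24 h beforehand at 7×10^3/well. Read-out: HCV-to-GAPDH ratio expressed as percent control versus untreated cells.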
row,Compound,pIC50
1,"CCOc1ccc(CC(=O)N/N=C/c2ccccc2OS(=O)(=O)c2ccc(C(F)(F)F)cc2)cc1 [Compound 67, 2-((E)-{2-[2-(4-ethoxyphenyl)acetyl]hydrazono}methyl)-phenyl 4-(trifluoromethyl)benzenesulfonate]",4.30 to 5.30
2,"O=C(Cc1ccc2ccccc2c1)N/N=C/c1ccccc1OS(=O)(=O)c1ccc(C(F)(F)F)cc1 [Compound 68, 2-((E)-{2-[2-(2-naphthyl)acetyl]hydrazono}methyl)phenyl4-(trifluoromethyl)benzenesulfonate]",> 5.30
3,"CS(=O)(=O)c1ccc(CC(=O)N/N=C/c2ccccc2OS(=O)(=O)c2ccc(C(F)(F)F)cc2)cc1 [Compound 69, 2-[(E)-(2-{2-[4-(methylsulfonyl)phenyl]acetyl}hydrazono)-methyl]phenyl 4-(trifluoromethyl)benzenesulfonate]",< 4.30
4,"COc1ccc(CC(=O)N/N=C/c2ccccc2OS(=O)(=O)c2ccc(C(F)(F)F)cc2)cc1Br [Compound 70, 2-((E)-{2-[2-(3-bromo-4-methoxyphenyl)acetyl]hydrazono}methyl)-phenyl 4-(trifluoromethyl)benzenesulfonate]",> 5.30
5,"O=C(N/N=C/c1ccccc1OS(=O)(=O)c1ccc(C(F)(F)F)cc1)c1cccc2ccccc12 [Compound 71, 2-{(E)-[2-(1-naphthoyl)hydrazono]methyl}phenyl 4-(trifluoromethyl)benzenesulfonate]",> 5.30
6,"O=C(N/N=C/c1ccccc1OS(=O)(=O)c1ccc(C(F)(F)F)cc1)c1cc(Cl)ccc1Cl [Compound 72, 2-{(E)-[2-(2,5-dichlorobenzoyl)hydrazono]methyl}phenyl4-(trifluoromethyl)benzenesulfonate]",> 5.30
7,"O=C(N/N=C/c1ccccc1OS(=O)(=O)c1ccc(C(F)(F)F)cc1)c1ccccc1Cl [Compound 73, 2-{(E)-[2-(2-chlorobenzoyl)hydrazono]methyl}phenyl 4-(trifluoromethyl)benzenesulfonate]",> 5.30
8,"O=C(N/N=C/c1ccccc1OS(=O)(=O)c1ccc(C(F)(F)F)cc1)c1ccc(Cl)cc1Cl [Compound 74, 2-{(E)-[2-(2,4-dichlorobenzoyl)hydrazono]methyl}phenyl4-(trifiuoromethyl)benzenesulfonate]",> 5.30
9,"O=C(N/N=C/c1ccccc1OS(=O)(=O)c1ccc(C(F)(F)F)cc1)OCc1ccccc1 [Compound 75, benzyl (2E)-2-[2-({[4-(trifluoromethyl)phenyl]sulfonyl}oxy)-benzylidene]hydrazinecarboxylate]",> 5.30
10,"O=C(N/N=C/c1ccccc1OS(=O)(=O)c1ccc(C(F)(F)F)cc1)c1cccnc1 [Compound 76, 2-{(E)-[2-(pyridin-3-ylcarbonyl)hydrazono]methyl}phenyl 4-(trifluoromethyl)benzenesulfonate]",4.30 to 5.30
11,"O=C(N/N=C/c1ccccc1OS(=O)(=O)c1ccc(C(F)(F)F)cc1)c1ccccc1[N+](=O)[O-] [Compound 77, 2-{(E)-[2-(2-nitrobenzoyl)hydrazono]methyl}phenyl 4-(trifluoromethyl)benzenesulfonate]",> 5.30
12,"Cc1ccc(S(=O)(=O)N/N=C/c2ccccc2OS(=O)(=O)c2ccc(C(F)(F)F)cc2)cc1 [Compound 78, 2-((E)-{2-[(4-methylphenyl)sulfonyl]hydrazono}methyl)-phenyl 4-(trifluoromethyl)benzenesulfonate]",4.30 to 5.30
13,"CN(C)c1ccc(C(=O)N/N=C/c2ccccc2OS(=O)(=O)c2ccc(C(F)(F)F)cc2)cc1 [Compound 79, 2-((E)-{2-[4-(dimethylamino)benzoyl]hydrazono}methyl)-phenyl 4-(trifluoromethyl)benzenesulfonate]",4.30 to 5.30
14,"C/C(=N\NC(=O)Cc1cccc(Cl)c1)c1ccccc1OS(=O)(=O)c1ccc(C(F)(F)F)cc1 [Compound 81, 2-{(1E)-N-[(3-chlorophenyl)acetyl]ethanehydrazonoyl}-phenyl 4-(trifluoromethyl)benzenesulfonate]",< 4.30
15,"O=C(Cc1nc(-c2cnccn2)no1)N/N=C/c1ccccc1OS(=O)(=O)c1ccc(C(F)(F)F)cc1 [Compound 82, 2-((E)-{2-[2-(3-pyrazin-2-yl-1,2,4-oxadiazol-5-yl)acetyl]hydrazono}methyl)phenyl 4-(trifluoromethyl)benzenesulfonate]",4.30 to 5.30
16,"CSc1ncccc1C(=O)N/N=C/c1ccccc1OS(=O)(=O)c1ccc(C(F)(F)F)cc1 [Compound 83, 2-[(E)-(2-{[2-(methylthio)pyridin-3-yl]carbonyl}hydrazono)methyl]phenyl 4-(trifluoromethyl)benzenesulfonate]",> 5.30
17,"O=C(CC1CCCC1)N/N=C/c1ccccc1OS(=O)(=O)c1ccc(C(F)(F)F)cc1 [Compound 84, 2-{(E)-[2-(2-cyclopentylacetyl)hydrazono]methyl}phenyl4-(trifluoromethyl)benzenesulfonate]",> 5.30

row,Compound,pIC50
1,"CCOc1ccccc1C(=O)N/N=C/c1ccccc1OS(=O)(=O)c1ccc(C(F)(F)F)cc1 [Compound 85, 2-{(E)-[2-(2-ethoxybenzoyl)hydrazono]methyl}phenyl4-(trifluoromethyl)benzenesulfonate]",< 4.30
2,"CN(C)c1cccc(OCC(=O)N/N=C/c2ccccc2OS(=O)(=O)c2ccc(C(F)(F)F)cc2)c1 [Compound 86, 2-[(E)-(2-{2-[3-(dimethylamino)phenoxy]acetyl}hydrazono)-methyl]phenyl 4-(trifluoromethyl)benzenesulfonate]",< 4.30
3,"COc1ccccc1C(=O)N/N=C/c1ccccc1OS(=O)(=O)c1ccc(C(F)(F)F)cc1 [Compound 87, 2-{(E)-[2-(2-methoxybenzoyl)hydrazono]methyl}phenyl4-(trifluoromethyl)benzenesulfonate]",< 4.30
4,"O=C(N/N=C/c1ccccc1OS(=O)(=O)c1ccc(C(F)(F)F)cc1)c1ccccc1Br [Compound 88, 2-{(E)-[2-(2-bromobenzoyl)hydrazono]methyl}phenyl4-(trifluoromethyl)benzenesulfonate]",> 5.30
5,"O=C(N/N=C/c1ccccc1OS(=O)(=O)c1ccc(C(F)(F)F)cc1)c1cnccc1C(F)(F)F [Compound 89, 2-[(E)-(2-{[4-(trifluoromethyl)pyridin-3-yl]carbonyl}hydrazono)methyl]phenyl 4-(trifluoromethyl)benzenesulfonate]",4.30 to 5.30
6,"O=C(N/N=C/c1ccccc1OS(=O)(=O)c1ccc(C(F)(F)F)cc1)c1ccccc1F [Compound 90, 2-{(E)-[2-(2-fluorobenzoyl)hydrazono]methyl}phenyl 4-(trifluoromethyl)benzenesulfonate]",4.30 to 5.30
7,"O=C(N/N=C/c1ccccc1OS(=O)(=O)c1ccc(C(F)(F)F)cc1)C1CCN(Cc2ccccc2)C1=O (stereo not shown) [Compound 91, 2-((E)-{2-[(1-benzyl-2-oxopyrrolidin-3-yl)carbonyl]hydrazono}methyl)phenyl 4-(trifluoromethyl)benzenesulfonate]",< 4.30
8,"Cc1ncccc1C(=O)N/N=C/c1ccccc1OS(=O)(=O)c1ccc(C(F)(F)F)cc1 [Compound 92, 2-((E)-{2-[(2-methylpyridin-3-yl)carbonyl]hydrazono}methyl)phenyl 4-(trifluoromethyl)benzenesulfonate]",4.30 to 5.30
9,"Cc1cccnc1C(=O)N/N=C/c1ccccc1OS(=O)(=O)c1ccc(C(F)(F)F)cc1 [Compound 93, 2-((E)-{2-[(3-methylpyridin-2-yl)carbonyl]hydrazono}methyl)phenyl 4-(trifluoromethyl)benzenesulfonate]",< 4.30
10,"O=C(CC12CC3CC(CC(C3)C1)C2)N/N=C/c1ccccc1OS(=O)(=O)c1ccc(C(F)(F)F)cc1 [Compound 94, 2-((E)-{2-[2-(1-adamantyl)acetyl]hydrazono}methyl)phenyl4-(trifluoromethyl)benzenesulfonate]",< 4.30
11,"O=C(CC1CCCO1)N/N=C/c1ccccc1OS(=O)(=O)c1ccc(C(F)(F)F)cc1 (stereo not shown) [Compound 95, 2-{(E)-[2-(2-tetrahydrofuran-2-ylacetyl)hydrazono]methyl}phenyl4-(trifluoromethyl)benzenesulfonate]",> 5.30
12,"COc1cccc(CNc2cccc(CC(=O)N/N=C/c3ccccc3OS(=O)(=O)c3ccc(C(F)(F)F)cc3)c2)c1 [Compound 96, 2-{(E)-[2-(2-{3-[(3-methoxybenzyl)amino]phenyl}acetyl)hydrazono]methyl}phenyl 4-(trifluoromethyl)benzenesulfonate]",< 4.30
13,"O=C(Cc1cccc(-n2cccc2)c1)N/N=C/c1ccccc1OS(=O)(=O)c1ccc(C(F)(F)F)cc1 [Compound 97, 2-[(E)-(2-{2-[3-(1H-pyrrol-1-yl)phenyl]acetyl}hydrazono)methyl]phenyl4-(trifluoromethyl)benzenesulfonate]",< 4.30
14,"O=C(Cc1cccc(N2CCCC2)c1)N/N=C/c1ccccc1OS(=O)(=O)c1ccc(C(F)(F)F)cc1 [Compound 98, 2-((E)-{2-[2-(3-pyrrolidin-1-ylphenyl)acetyl]hydrazono}methyl)phenyl4-(trifluoromethyl)benzenesulfonate]",4.30 to 5.30
15,"CC(=O)Nc1ccc(CNc2cccc(CC(=O)N/N=C/c3ccccc3OS(=O)(=O)c3ccc(C(F)(F)F)cc3)c2)cc1 [Compound 99, 2-((E)-{2-[2-(3-{[4-(acetylamino)benzyl]amino}phenyl)acetyl]-hydrazono}methyl)phenyl 4-(trifluoromethyl)benzenesulfonate]",> 5.30
16,"Cc1ccccc1C(=O)N/N=C/c1ccccc1OS(=O)(=O)c1ccc(C(F)(F)F)cc1 [Compound 100, 2-{(E)-[2-(2-methylbenzoyl)hydrazono]methyl}phenyl4-(trifluoromethyl)benzenesulfonate]",> 5.30

# Same assay, conditions: Hepatitis C virus, Huh-7, 72 h
row,Compound,pIC50
1,"O=C(CC1CC2CCC1C2)N/N=C/c1ccccc1OS(=O)(=O)c1ccc(C(F)(F)F)cc1 (stereo not shown) [Compound 80, 2-{(E)-[2-(2-bicyclo[2.2.1]hept-2-ylacetyl)hydrazono]methyl}phenyl 4-(trifluoromethyl)benzenesulfonate]",> 5.30
